The record followed here is paper PMC5556071, “ATR inhibition facilitates targeting of leukemia dependence on convergent nucleotide biosynthetic pathways” (Nature Communications, 2017).

Experiment [1] relates to CEM T-ALL cells. Briefly: Cell cycle kinetics by EdU incorporation (flow cytometry) after release from Palbociclib G1 arrest. Type of experiment: cell-based, human. The following applies: for S1 / S2 / S3: synchronous CEM, 12 h after G1 release. On the procedure:
CEM T-ALL cells were synchronized in G1 phase, and then treated as indicated. Cells were pulsed with EdU 1 h before collection at different time points. Cells were fixed 4% paraformaldehyde, permeabilized with perm/wash reagent (Invitrogen), stained with Azide-AF647 (using click-chemistry, Invitrogen; Click-iT EdU Flow cytometry kit, #C10634) and FxCycle-Violet (Invitrogen), and then analyzed flow cytometry (a detailed description is available in the Supplementary Information).
Cell cycle synchronization. Cells were treated with a CDK4/6 inhibitor, Pablociclib or PD-0332991 (Selleckchem, S1116) for 18 h to synchronize them in the G1 phase. Subsequently, cells were washed twice with PBS containing 2% FBS (Omega Scientific) and released into fresh media. […]
0.5 ml of propidium iodide (Calbiochem, #P3566, 1 µg/mL) solution containing Ribonuclease A and 0.3% Triton-X 100. The samples were protected from light before acquisition by flow cytometry.
Cell cycle kinetics and cell cycle progression by intracellular detection of DNA-incorporated 5-ethynyl-2-deoxyuridine (EdU). CEM T-ALL cells were plated at a density of 0.5 x 10^6 cells/mL. Cells were pulsed with 10 µM EdU (Invitrogen) for 1 h, washed twice with PBS, and released in fresh media containing 5 µM deoxyribonucleosides, with and without drugs. Cells were collected at different time points following release in fresh media, and then fixed with 4% paraformaldehyde and permeabilized using saponin perm/wash reagent (Invitrogen). Cells were then stained with azide-Alexa Fluor 647 by Click reaction according to manufacturer’s protocol (Invitrogen; Click-iT EdU Flow cytometry kit, #C10634). The total DNA content was assessed by staining the samples with FxCycle-Violet (Invitrogen, #F10347) at 1 µg/mL final concentration in PBS containing 2% FBS. To measure the cell cycle progression of a synchronous population of cells, cells were first arrested in the G1 phase following treatment with 1 µM Palbociclib for 18 h, then washed and released in fresh media supplemented with drugs. Before collecting and fixing the cells at different time points, the cells were pulse-labeled with 10 µM EdU for 1 h, and then labeled with azide-Alexa Fluor 647 (Invitrogen; Click-iT EdU Flow cytometry kit). Total DNA content was assessed by staining with FxCycle-Violet (Invitrogen) at 1 µg/mL final concentration in PBS containing 2% FBS. pH2A.X staining. Cells were harvested, fixed and permeabilized with cytofix/cytoperm (BD biosciences, #554722) for 15 min on ice protected from light. Cells were washed, then resuspended in 100 µL 1X Perm/wash buffer (BD Sciences) and incubated for 15 min on ice. The cells were washed, then resuspended in 50 µL with phospho-Histone H2A.X (Ser139) antibody conjugated to fluorochrome FITC (EMD Millipore, #05-636, 1:800 dilutions in perm/wash) for 20 min in the dark at RT. Subsequently, cells were washed and stained with 0.5 mL of DAPI (Invitrogen, #D1306) for DNA content (1 µg/mL in 2% FBS in PBS) before data […]
Measurement of ssDNA levels using the F7-26 monoclonal antibody. Cells were harvested and fixed with ice-cold methanol:PBS (6:1 v/v) for 24h. Staining with F7-26 monoclonal mouse antibody was performed according to manufacturer’s instructions (EMD Millipore, #MAB3299). Fixed cells were resuspended in 250 µL of formamide and heated in a water bath at 75 °C for 10 min. Cells were then allowed to equilibrate to room temperature and then washed with 2 mL of 1% non-fat dry milk in PBS for 15 min. Subsequently, cells were resuspended in 100 µL of anti-ssDNA Mab F7-26 (EMD Millipore, 1:10 in 5% FBS in PBS) and incubated for 45 min at room temperature. Cells were washed with PBS and stained with 100 µL of fluorescence-conjugated
In general terms: In flow cytometry, cells or beads pass a laser one at a time.

The test system of experiment [2] is CEM T-ALL cells. Briefly: ssDNA (F7-26) and pH2A.X flow cytometry. Type of experiment: cell-based, human. On the procedure:
Treated CEM T-ALL cells were fixed with ice-cold methanol:PBS (6:1 v/v). Staining with F7-26 ssDNA monoclonal antibody (mouse) was performed according to manufacturer’s instructions (EMD Millipore, #MAB3299) followed by secondary antibody IgM-PE. Subsequently, cells were stained with the phospho-Histone H2A.X (pS139 H2A.X) specific antibody conjugated to FITC (EMD Millipore, #05-636) and DAPI, and then analyzed by flow cytometry (a detailed description is available in the Supplementary Information).
(525→383). The peak areas for each drug (precursor→fragment ion transitions) at predetermined retention times were recorded using the software supplied by the instrument manufacturer (Agilent MassHunter).
Cell cycle histograms. Cells were plated at a density of 0.5 x 10^6 cells/mL in respective media or drug treated media. […]
Cell cycle kinetics and cell cycle progression by intracellular detection of DNA-incorporated 5-ethynyl-2-deoxyuridine (EdU). […] The total DNA content was assessed by staining the samples with FxCycle-Violet (Invitrogen, #F10347) at 1 µg/mL final concentration in PBS containing 2% FBS. […] Total DNA content was assessed by staining with FxCycle-Violet (Invitrogen) at 1 µg/mL final concentration in PBS containing 2% FBS. pH2A.X staining. […]
Measurement of ssDNA levels using the F7-26 monoclonal antibody. […] Cells were washed with PBS and stained with 100 µL of fluorescence-conjugated […]

In another experiment the test system is p185BCR-ABL Arf–/– cells. Briefly: Proliferation assay (CellTiter-Glo, 72 h). Type of experiment: cell-based. The following applies: Mus musculus. The protocol: Cells were plated in 384-well plates (1000 cells/well for suspension cell lines and 500 cells/well for adherent cell lines in 30 µl volume). Drugs were serially diluted to the desired concentrations and an equivalent volume of DMSO was added to vehicle control. Ten microliter of the 4× diluted drugs were added to each well. Following 72 h incubation, ATP content was measured using CellTiter-Glo reagent according to manufacturer’s instructions (Promega, CellTiter-Glo Luminescent Cell Viability Assay), and analyzed by SpectraMax luminometer (Molecular Devices). IC50 values, concentrations required to inhibit proliferation by 50% compared to DMSO treated cells, were calculated using Prism 6.0 h (Graphpad Software).

Experiment [3] deals with p185BCR-ABL Arf–/– pre-B-ALL. Briefly: Systemic primary pre-B-ALL leukemia model, survival, bioluminescence, body weight. In kind it is in vivo.
Description: For development of systemic leukemia model, C57Bl/6 female mice were injected intravenously with 50,000 firefly luciferase expressing p185^BCR-ABL Arf ^−/− pre-B-ALL cells[12], [31]. The leukemic burden was monitored using bioluminescence imaging. All drug treatments were performed in an oral formulation consisting of PEG-200, Transcutol, Labrasol and Tween-80 blended in a ratio of 5:3:1:1. The oral gavage volume was 50 µl per dose (a detailed description is available in the Supplementary Information).
All C57BL/6 female mice were purchased from the UCLA Radiation Oncology breeding colony. […] For oral administration, single agent or combination of drugs were solubilized in a formulation consisting of the following: PEG-200: Transcutol: Labrasol: Tween-80 mixed in 5:3:1:1 ratio. For i.p. administration, the drugs were solubilized in PEG-400 and 1 mM Tris-HCl in a 1:1 (v:v) ratio. Dasatinib (LC Laboratories) was solubilized in 80 mM citric acid (pH 3.1) and was administered at a dose of 10 mg kg^–1 by oral gavage. 2 × 10^5 luciferase expressing p185^BCR-ABL Arf ^−/− pre-B-ALL cells were injected intravenously into C57BL/6 female mice for leukemia induction. […] The mice were observed daily and those that became moribund during the trials, (paralysis of hind limbs, significant body weight loss) were sacrificed immediately.
Mice were anesthetized with 2% isoflurane followed by intraperitoneal injection of 50 μl (50 mg ml^−1) substrate D-luciferin (Sigma, #L9504). The mice were imaged with the IVIS 100 Bioluminescence Imaging scanner 10 min after luciferin administration. All mice were imaged in groups of five with 1-minute exposure time, and the images were acquired at low binning.

Turning to `COc1ccc(-c2nc([C@@H](C)Sc3nc(N)cc(N)n3)c(C)s2)cc1OCCNS(C)(=O)=O` [dCKi], in the experiment on CEM T-ALL cells [1] (12 h following release from G1 arrest, DI-82 1 µM), the “percentage of cell population in S2* (late S-phase)” value stood at 6.1%. Also, in the experiment with CEM T-ALL cells [1] (+ dNTP (10 µM)), the S1 was 42%, the S2 came out at 42% and the S3 was found to be 14%. Moreover, in the experiment on CEM T-ALL cells [1] (– dNTP), the S1 turned out to be 66%, the S2 was found to be 22% and the S3 is listed as 8.4%.

`NC(=S)N/N=C/c1ncccc1N` [3-AP]: the “increase of the percentage of ssDNA+ cells” value in the experiment with CEM T-ALL cells [2] (0.5 h after treatment) is recorded as “more than two-fold”; in the experiment with CEM T-ALL cells [2] (4 h time point), “greater than three-fold”.

Usually IC50 stands for the concentration that inhibits the measured activity by half. Lower therefore signals greater potency. For the molecule `CNCc1ccc(-c2cc(-c3nc(-c4ccc(S(=O)(=O)C(C)C)cc4)cnc3N)on2)cc1` [VE-822], the IC50 with p185BCR-ABL Arf–/– cells was about 0.3 µM. Also, the “efficacy in vivo of VE-822 alone” value in experiment [3] (VE-822 40 mg kg–1 once daily) is “only marginally efficacious”. The “time by which all treated mice died of leukemia” value in experiment [3] (after inoculation, VE-822 40 mg kg–1 once daily) is recorded as at most 38 days. In addition, the Median survival in experiment [3] (after treatment initiation, 40 mg kg–1 day–1 VE-822, n = 6) came out at 32.5 days. Also, the “fewer cells entered S2 compared to untreated cells” value in the experiment on CEM T-ALL cells [1] (12 h after release from G1 arrest) turned out to be 16%. In the experiment with CEM T-ALL cells [1] (+ dNTP (10 µM)), the S1 turned out to be 43%, the S2 is 52% and the S3 turned out to be 1.5%. In the experiment with CEM T-ALL cells [1] (– dNTP), this molecule returned an S1 of 58%, an S2 of 37% and an S3 of 1%.
